Source: US20260356803A1, “Nicotinamide derivatives” (Board of Regents, The University of Texas System, priority 2024, published 2026)

System: IMPDH
Assay: Guanosine co-titration rescue
Format: cell-based
Details: guanosine co-titrated
Source text: Given that vacor, 3-AP, and compound 21 are all metabolized to toxic, NAD-like derivatives through NAMPT and NMNAT, we hypothesized that their anti-cancer activity may also depend on SARM1. To test this, we compared the toxic effects of vacor, 3-AP, and 9 in either wild type cells or cells in which we used CRISPR to silence SARM1. […] These observations highlight that even though these different scaffolds are toxified through the same mechanism, the resulting metabolites may have different activities. We next co-titrated guanosine, which is known to rescue tiazofurin by bypassing IMPDH in guanylate synthesis, with each of the above small molecules. […] To test this hypothesis, we set up in vitro reactions with different combinations of 9, NAMPT and NMNAT. After incubation, metabolites were extracted, reconstituted in aqueous solution and then co-incubated with an established IMPDH2 enzyme assay.

`O=C(Nc1cccs1)c1cccnc1` [Compound 9, N-(Thiophen-2-yl)nicotinamide] was tested. Which “guanosine rescue of toxicity” value did it give?
Its value is “profound dose-dependent rescue”.
